For the assay, the target named is human GPR17 short isoform (Homo sapiens, UniProt Q13304). As to the kind of experiment: GPR17 cAMP assay (hGPR17 cAMP, TR-FRET, antagonist mode). The class given is cell-based. As to conditions: CHO-K1 cells stably expressing human GPR17 short isoform; EC80 of agonist MDL29,951; forskolin 15 μM; 30 min at room temperature. (In general: Changes in cAMP serve as a functional read-out for many G protein-coupled receptors.)

The text below walks through data of US20260242372A1, “NOVEL IMIDAZOPYRIDINE AND PYRAZOLOPYRIDINE SULFONAMIDE DERIVATIVES” (Hoffmann-La Roche Inc., priority 2022, published 2026).

pIC50: −log10 of the molar value.

Chain of human GPR17 short isoform (Q13304 29-367): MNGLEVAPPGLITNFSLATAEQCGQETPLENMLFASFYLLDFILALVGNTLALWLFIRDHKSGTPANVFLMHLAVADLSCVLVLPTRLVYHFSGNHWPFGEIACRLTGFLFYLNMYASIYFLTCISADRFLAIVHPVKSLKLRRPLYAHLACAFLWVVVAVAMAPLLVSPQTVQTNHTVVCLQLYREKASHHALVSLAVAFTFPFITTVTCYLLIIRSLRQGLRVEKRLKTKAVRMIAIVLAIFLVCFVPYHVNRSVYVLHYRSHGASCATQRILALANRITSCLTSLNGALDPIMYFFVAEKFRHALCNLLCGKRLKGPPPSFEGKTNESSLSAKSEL

Turning to `COc1nc(OCC(F)F)c(F)cc1NS(=O)(=O)c1cnn2c1CCC(C)C2` (stereo not shown) [Example 83, N-[6-(2,2-difluoroethoxy)-5-fluoro-2-methoxy-3-pyridyl]-6-methyl-4,5,6,7-tetrahydropyrazolo[1,5-a]pyridine-3-sulfonamide], the negative-log IC50 (pIC50) (in general, −log10 of the IC50, conventionally taken in molar units) was 7.00. With `COc1nc(OCC(F)F)c(F)cc1NS(=O)(=O)c1cnn2c(C#N)c(C)ccc12` [Example 84, 7-cyano-N-[6-(2,2-difluoroethoxy)-5-fluoro-2-methoxy-3-pyridyl]-6-methyl-pyrazolo[1,5-a]pyridine-3-sulfonamide], the pIC50 was 6.89.

As to `O=S(=O)(Nc1cc(F)c(OC(F)F)cc1F)c1cnn2cc(Br)ccc12` [Example 85, 6-bromo-N-[4-(difluoromethoxy)-2,5-difluoro-phenyl]pyrazolo[1,5-a]pyridine-3-sulfonamide], the negative logarithm of the IC50 (pIC50) is 6.60. With `COc1nc(C2COC2)c(F)cc1NS(=O)(=O)c1cnn2cc(Br)ccc12` [Example 87, 6-bromo-N-[5-fluoro-2-methoxy-6-(oxetan-3-yl)-3-pyridyl]pyrazolo[1,5-a]pyridine-3-sulfonamide] the figure was 6.44; with `COc1nc(OCC(F)F)c(F)cc1NS(=O)(=O)c1cnn2c1COC(C)C2` (stereo not shown) [Example 88, N-[6-(2,2-difluoroethoxy)-5-fluoro-2-methoxy-3-pyridyl]-6-methyl-6,7-dihydro-4H-pyrazolo[5,1-c][1,4]oxazine-3-sulfonamide], 6.16. With `COc1nc(NS(=O)(=O)c2cnc3cc(Cl)ccn23)nc(OC)c1OCCF` [Example 89, 7-chloro-N-[5-(2-fluoroethoxy)-4,6-dimethoxy-pyrimidin-2-yl]imidazo[1,2-a]pyridine-3-sulfonamide] the figure was 6.86; with `COc1nc(NS(=O)(=O)c2cnc3cc(Cl)ccn23)nc(OC)c1OCC(F)F` [Example 90, 7-chloro-N-[5-(2,2-difluoroethoxy)-4,6-dimethoxy-pyrimidin-2-yl]imidazo[1,2-a]pyridine-3-sulfonamide], 6.94.

Turning to `COc1nc(NS(=O)(=O)c2cnc3cc(Br)ccn23)ncc1OCCF` [Example 91, 7-bromo-N-[5-(2-fluoroethoxy)-4-methoxy-pyrimidin-2-yl]imidazo[1,2-a]pyridine-3-sulfonamide], the pIC50 was 6.68. As for `N#CCc1cc(F)c(NS(=O)(=O)c2cnn3cc(Br)ccc23)cc1F` [Example 92, 6-bromo-N-[4-(cyanomethyl)-2,5-difluoro-phenyl]pyrazolo[1,5-a]pyridine-3-sulfonamide], the pIC50 is 6.94. This pIC50 is 0.26 log units higher than that of the molecule before.

In turn, `COc1cc(CC#N)c(F)cc1NS(=O)(=O)c1cnc2cc(C3CC3)ccn12` [Example 93, N-[4-(cyanomethyl)-5-fluoro-2-methoxy-phenyl]-7-cyclopropyl-imidazo[1,2-a]pyridine-3-sulfonamide] showed a pIC50 of 8.40. This pIC50 lies 1.46 log units higher than the previous one. Molecule `COc1nc(OCC(F)F)c(F)cc1NS(=O)(=O)c1cnc2cc(C3CC3)ccn12` [Example 94, 7-cyclopropyl-N-[6-(2,2-difluoroethoxy)-5-fluoro-2-methoxy-3-pyridyl]imidazo[1,2-a]pyridine-3-sulfonamide] gave a pIC50 of 8.05. For `COc1nc(OC(F)F)c(F)cc1NS(=O)(=O)c1cnc2cc(C3CC3)ccn12` [Example 95, 7-cyclopropyl-N-[6-(difluoromethoxy)-5-fluoro-2-methoxy-3-pyridyl]imidazo[1,2-a]pyridine-3-sulfonamide] the value was 7.89; for `COc1nc(NS(=O)(=O)c2cnc3cc(C4CC4)ccn23)c(F)cc1CC#N` [Example 96, N-[5-(cyanomethyl)-3-fluoro-6-methoxy-2-pyridyl]-7-cyclopropyl-imidazo[1,2-a]pyridine-3-sulfonamide], 7.42; for `COc1nc(NS(=O)(=O)c2cnc3nc(C4CC4)ccn23)c(F)cc1OC(F)F` [Example 97, 7-cyclopropyl-N-[5-(difluoromethoxy)-3-fluoro-6-methoxy-2-pyridyl]imidazo[1,2-a]pyrimidine-3-sulfonamide], 7.64. With `COc1c(C)ccn2c(S(=O)(=O)Nc3cc(F)c(C#N)cc3F)cnc12` [Example 98, N-(4-cyano-2,5-difluoro-phenyl)-8-methoxy-7-methyl-imidazo[1,2-a]pyridine-3-sulfonamide] the figure was 6.09; with `COc1nc(NS(=O)(=O)c2cnn3cc(Br)ccc23)c(F)cc1OC(F)F` [Example 99, 6-bromo-N-[5-(difluoromethoxy)-3-fluoro-6-methoxy-2-pyridyl]pyrazolo[1,5-a]pyridine-3-sulfonamide], 8.10. On to `COc1nc(OCC(F)F)c(F)cc1NS(=O)(=O)c1cnc2cc(C3COC3)ccn12` [Example 100, N-[6-(2,2-difluoroethoxy)-5-fluoro-2-methoxy-3-pyridyl]-7-(oxetan-3-yl)imidazo[1,2-a]pyridine-3-sulfonamide], for which the pIC50 was 7.43. With `COc1cc(CC#N)c(F)cc1NS(=O)(=O)c1cnc2cc(C3COC3)ccn12` [Example 101, N-[4-(cyanomethyl)-5-fluoro-2-methoxy-phenyl]-7-(oxetan-3-yl)imidazo[1,2-a]pyridine-3-sulfonamide] the figure was 6.75. Regarding `COc1nc(NS(=O)(=O)c2cnc3cc(C4COC4)ccn23)c(F)cc1CC(F)F` [Example 102, N-[5-(2,2-difluoroethyl)-3-fluoro-6-methoxy-2-pyridyl]-7-(oxetan-3-yl)imidazo[1,2-a]pyridine-3-sulfonamide], the negative-log IC50 (pIC50) is 6.70. With `COc1nc(OCC(F)F)c(F)cc1NS(=O)(=O)c1cnc2nc(C3COC3)ccn12` [Example 103, N-[6-(2,2-difluoroethoxy)-5-fluoro-2-methoxy-3-pyridyl]-7-(oxetan-3-yl)imidazo[1,2-a]pyrimidine-3-sulfonamide] the figure was 6.31; with `COc1nc(OCC(F)F)c(F)cc1NS(=O)(=O)c1cnn2cc(C3COC3)ccc12` [Example 104, N-[6-(2,2-difluoroethoxy)-5-fluoro-2-methoxy-3-pyridyl]-6-(oxetan-3-yl)pyrazolo[1,5-a]pyridine-3-sulfonamide], 6.51. Take `COc1nc(OCC(F)F)c(F)cc1NS(=O)(=O)c1cnc2nc(Br)ccn12` [Example 105, 7-bromo-N-[6-(2,2-difluoroethoxy)-5-fluoro-2-methoxy-3-pyridyl]imidazo[1,2-a]pyrimidine-3-sulfonamide]: the pIC50 is 7.57. Compared with the last molecule, the pIC50 is 1.06 log units higher. For `COc1nc(OCC(F)F)c(F)cc1NS(=O)(=O)c1cnc2cc(C(C)(C)O)ccn12` [Example 106, N-[6-(2,2-difluoroethoxy)-5-fluoro-2-methoxy-3-pyridyl]-7-(1-hydroxy-1-methyl-ethyl)imidazo[1,2-a]pyridine-3-sulfonamide] the value was 7.42; for `COc1nc(OCC(F)F)c(F)cc1NS(=O)(=O)c1cnc2n1CC[C@@H](C)C2` [Example 108, (7R)—N-[6-(2,2-difluoroethoxy)-5-fluoro-2-methoxy-3-pyridyl]-7-methyl-5,6,7,8-tetrahydroimidazo[1,2-a]pyridine-3-sulfonamide], 7.80; for `COc1nc(OCC(F)F)c(F)cc1NS(=O)(=O)c1cnc2n1CC[C@H](C)C2` [Example 109, (7S)—N-[6-(2,2-difluoroethoxy)-5-fluoro-2-methoxy-3-pyridyl]-7-methyl-5,6,7,8-tetrahydroimidazo[1,2-a]pyridine-3-sulfonamide], 7.46.
